How the values were obtained:
[1] = test system: Puccinia recondita f. sp. tritici; experiment: Puccinia recondita f. sp. tritici / wheat / leaf disc preventative (brown rust); type: in vivo; conditions: foliar, wheat leaf segments cv. Kanzler, inoculated 1 day after application, assessed 7-9 days after application, read-out: control of Puccinia recondita f. sp. tritici compared to untreated control
How it was run: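 Wheat leaf segments (cv. Kanzler) on water agar sprayed with compound diluted from DMSO stock in water/0.025% Tween20, then inoculated with P. recondita spores 1 day later. Incubated at 19 °C, 75% rh, 12 h light/dark. Percent disease control versus untreated assessed 7-9 days after application.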

Uromyces viciae-fabae = Uromyces viciae-fabae / field bean / leaf disc preventative (faba-bean rust); type: in vivo; conditions: foliar, 288 h, 100 ppm in the applied formulation, field bean leaf discs, inoculated two hours after application, 12 days after application, read-out: disease control compared to untreated control leaf discs
How it was run: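 Preventative test: field bean leaf discs on water agar received compound in acetone with spreader, then were spray-inoculated with rust spores on the lower surface 2 h later. Discs were kept at 22 °C, 18 h day, 70% RH, with percent disease control versus untreated assessed 12 days after application.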

Phakopsora pachyrhizi = Phakopsora pachyrhizi / soybean / leaf disc preventative (Asian soybean rust); type: in vivo; conditions: foliar, soybean leaf disks, inoculated one day after application, assessed 12-14 days after application, read-out: control of Phakopsora pachyrhizi compared to untreated control
How it was run: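 Soybean leaf discs on water agar sprayed with formulated compound diluted in water; spore suspension sprayed on lower surface 1 day later. Kept 24-36 h dark at 20° C, 75% rh, then 12 h light/12 h dark. Percent disease control versus untreated scored 12-14 days after application.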

[2] = test system: Glomerella lagenarium (Colletotrichum lagenarium); experiment: Glomerella lagenarium (Colletotrichum lagenarium) liquid culture / cucumber / preventative (anthracnose); type: cell-based; conditions: Colletotrichum orbiculare, liquid culture in PDB, 24° C., 3-4 days after application, read-out: control of Glomerella lagenarium compared to untreated control (inhibition of growth, photometric)
How it was run: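 Conidia from cryogenic storage mixed into potato dextrose broth and added to compound diluted from DMSO stock with 0.025% Tween20. Incubated at 24 °C; growth inhibition read photometrically 3–4 days after application, as percent antifungal activity versus untreated check.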

[3] = test system: Puccinia recondita f. sp. tritici; experiment: Puccinia recondita f. sp. tritici / wheat / leaf disc curative (brown rust); type: in vivo; conditions: foliar, wheat leaf segments cv. Kanzler, applied 1 day after inoculation, assessed 6-8 days after application, read-out: control of Puccinia recondita f. sp. tritici compared to untreated control
How it was run: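 Wheat cv. Kanzler leaf segments on agar, inoculated with brown rust spores and kept dark at 19 °C, 75% rh; formulated compound sprayed 1 day after inoculation (curative). Incubated 19 °C, 75% rh, 12 h light/dark; percent disease control vs untreated scored 6–8 days after application.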

SMILES | melting point [°C] | pest or weed control at 200 ppm [1] [%] | pest or weed control at 100 ppm (Uromyces viciae-fabae) [%] | pest or weed control at 200 ppm (Phakopsora pachyrhizi) [%] | inhibition at 20 ppm [2] [%] | pest or weed control at 200 ppm [3] [%]
CONC(=O)c1ccc(-c2noc(C(F)(F)F)n2)cc1F [Compound 1.1, 2-fluoro-N-methoxy-4-[5-(trifluoromethyl)-1,2,4-oxadiazol-3-yl]benzamide] | 122 to 125 | ≥ 80 | ≥ 80 | ≥ 80 | ≥ 80 | ≥ 80
CON(C(=O)c1ccc(-c2noc(C(F)(F)F)n2)cc1F)C(C)Cc1c(Cl)cc(Cl)cc1Cl (centres unmarked) [Compound 1.4, 2-fluoro-N-methoxy-N-[1-methyl-2-(2,4,6-trichlorophenyl)ethyl]-4-[5-(trifluoromethyl)-1,2,4-oxadiazol-3-yl]benzamide] | 83.5 to 86.2 | – | ≥ 80 | – | – | –
CC(CC#N)ONC(=O)c1ccc(-c2noc(C(F)(F)F)n2)cc1F (centres unmarked) [Compound 1.11, N-(2-cyano-1-methyl-ethoxy)-2-fluoro-4-[5-(trifluoromethyl)-1,2,4-oxadiazol-3-yl]benzamide] | 85.8 to 88 | ≥ 80 | ≥ 80 | ≥ 80 | ≥ 80 | ≥ 80
O=C(NOCc1ccccc1)c1ccc(-c2noc(C(F)(F)F)n2)c(F)c1 [Compound 1.16, N-benzyloxy-3-fluoro-4-[5-(trifluoromethyl)-1,2,4-oxadiazol-3-yl]benzamide] | 178 to 181 | ≥ 80 | – | ≥ 80 | ≥ 80 | ≥ 80
CONC(=O)Cc1ccc(-c2noc(C(F)(F)F)n2)c(F)c1 [Compound 1.17, 2-[3-fluoro-4-[5-(trifluoromethyl)-1,2,4-oxadiazol-3-yl]phenyl]-N-methoxy-acetamide] | 131 to 133 | ≥ 80 | – | ≥ 80 | ≥ 80 | ≥ 80
CON(C)C(=O)Cc1ccc(-c2noc(C(F)(F)F)n2)cc1F [Compound 1.19, 2-[2-fluoro-4-[5-(trifluoromethyl)-1,2,4-oxadiazol-3-yl]phenyl]-N-methoxy-N-methyl-acetamide] | 104 to 106 | ≥ 80 | – | ≥ 80 | ≥ 80 | ≥ 80
CCONC(=O)Cc1ccc(-c2noc(C(F)(F)F)n2)c(F)c1 [Compound 1.22, N-ethoxy-2-[3-fluoro-4-[5-(trifluoromethyl)-1,2,4-oxadiazol-3-yl]phenyl]acetamide] | 150 to 152 | ≥ 80 | – | ≥ 80 | ≥ 80 | ≥ 80

Further lines, with some results ahead:

melting point [°C] | SMILES | pest or weed control at 200 ppm [1] [%] | pest or weed control at 100 ppm (Uromyces viciae-fabae) [%] | pest or weed control at 200 ppm (Phakopsora pachyrhizi) [%] | inhibition at 20 ppm [2] [%] | pest or weed control at 200 ppm [3] [%]
60.3 to 62.4 | O=C(c1ccc(-c2noc(C(F)(F)F)n2)cc1F)N1CCCO1 [Compound 1.26, [2-fluoro-4-[5-(trifluoromethyl)-1,2,4-oxadiazol-3-yl]phenyl]-isoxazolidin-2-yl-methanone] | ≥ 80 | ≥ 80 | – | ≥ 80 | ≥ 80
57.3 to 59.4 | O=C(c1ccc(-c2noc(C(F)(F)F)n2)cc1F)N1CCCCO1 [Compound 1.27, [2-fluoro-4-[5-(trifluoromethyl)-1,2,4-oxadiazol-3-yl]phenyl]-(oxazinan-2-yl)methanone] | ≥ 80 | ≥ 80 | ≥ 80 | ≥ 80 | ≥ 80
167 to 169 | C#CCONC(=O)c1ccc(-c2noc(C(F)(F)F)n2)cc1 [Compound 2.11, N-prop-2-ynoxy-4-[5-(trifluoromethyl)-1,2,4-oxadiazol-3-yl]benzamide] | ≥ 80 | ≥ 80 | ≥ 80 | ≥ 80 | ≥ 80
134 to 135 | C=CCONC(=O)c1ccc(-c2noc(C(F)(F)F)n2)cc1 [Compound 2.12, N-allyloxy-4-[5-(trifluoromethyl)-1,2,4-oxadiazol-3-yl]benzamide] | ≥ 80 | ≥ 80 | ≥ 80 | ≥ 80 | ≥ 80
131 to 138 | CONC(=O)Cc1ccc(-c2noc(C(F)(F)F)n2)cc1 [Compound 2.13, N-methoxy-2-[4-[5-(trifluoromethyl)-1,2,4-oxadiazol-3-yl]phenyl]acetamide] | ≥ 80 | – | ≥ 80 | ≥ 80 | ≥ 80
171 to 183 | CCONC(=O)Cc1ccc(-c2noc(C(F)(F)F)n2)cc1 [Compound 2.16, N-ethoxy-2-[4-[5-(trifluoromethyl)-1,2,4-oxadiazol-3-yl]phenyl]acetamide] | ≥ 80 | – | ≥ 80 | ≥ 80 | ≥ 80
140 to 146 | O=C(Cc1ccc(-c2noc(C(F)(F)F)n2)cc1)NOCC(F)F [Compound 2.17, N-(2,2-difluoroethoxy)-2-[4-[5-(trifluoromethyl)-1,2,4-oxadiazol-3-yl]phenyl]acetamide] | ≥ 80 | – | ≥ 80 | ≥ 80 | ≥ 80
89 | O=C(c1ccc(-c2noc(C(F)(F)F)n2)cc1)N1OC2C=CC1CC2 (centres unmarked) [Compound 2.23, 2-oxa-3-azabicyclo[2.2.2]oct-5-en-3-yl-[4-[5-(trifluoromethyl)-1,2,4-oxadiazol-3-yl]phenyl]methanone] | ≥ 80 | ≥ 80 | ≥ 80 | ≥ 80 | ≥ 80
120 to 121 | O=C(c1ccc(-c2noc(C(F)(F)F)n2)cc1)N1OC2CCC1CC2 [Compound 2.24, 2-oxa-3-azabicyclo[2.2.2]octan-3-yl-[4-[5-(trifluoromethyl)-1,2,4-oxadiazol-3-yl]phenyl]methanone] | – | ≥ 80 | ≥ 80 | ≥ 80 | ≥ 80

Source: patent publication US11154060B2, “Microbiocidal oxadiazole derivatives” (SYNGENTA PARTICIPATIONS AG, priority 2016, dated 2021)
